The text below walks through data of patent publication US20040121965A1, “Method of treating resistant tumors” (Wyeth Holdings Corporation, priority 2002, published 2004).

One test has as its system KB-3-1. Briefly: Cell survival assay (SRB), KB-3-1. The format is cell-based, human. The note with it: Homo sapiens, KB 3-1, KB-3-1 cells (paclitaxel-sensitive parent); read-out: In vitro IC50 (nM) KB-3-1. The gist of the method: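 SRB protein stain as survival read-out; IC50 = conc. giving 50% growth inhibition. Compound serially diluted, duplicate wells, 3 d exposure; TCA fixation (10% final, 1 h, 4 °C), 0.04% SRB/1% acetic acid 10 min, solubilised in 10 mM Trizma Base, A read.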

The next test concerns KB-8-5 (MDR1+). Briefly: Cell survival assay (SRB), KB-8-5 (MDR1+). The note with it: for IC50: Homo sapiens, MDR1, read-out: In vitro IC50 (nM) KB85.
For a further test, the system named is KB-V1 (MDR1++). Briefly: Cell survival assay (SRB), KB-V1 (MDR1++). The following applies: for IC50: Homo sapiens, read-out: In vitro IC50 (nM) KBV1.

By IC50 is commonly meant the midpoint of a concentration-inhibition curve.

Each structure is given as a SMILES string.

For `CN[C@H](C(=O)N[C@H](C(=O)N(C)[C@H](/C=C(\C)C(=O)O)C(C)C)C(C)(C)C)C(C)(C)c1ccccc1C` [Example 35, N,β,β,2-Tetramethyl-L-phenylalanyl-N^1-[(1S,2E)-3-carboxy-1-isopropyl-2-butenyl]-N^1,3-dimethyl-L-valinamide], the results for the IC50 in the test with KB-3-1, in the test on KB-8-5 (MDR1+) and in the test with KB-V1 (MDR1++) were 0.912 nM, 1.8 nM and 56.2 nM, respectively. Further, the “Ratio KB85/KB” value in the test with KB-8-5 (MDR1+) amounted to 2.0. Moreover, in the test with KB-V1 (MDR1++), the “Ratio KBV1/KB” value is listed as 61.6.

In the case of `CN[C@H](C(=O)N[C@H](C(=O)N(C)[C@H](/C=C(\C)C(=O)O)C(C)C)C(C)(C)C)C(C)(C)c1cccc(Br)c1` [Example 37, 3-bromo-N,β,β-trimethyl-L-phenylalanyl-N^1-[(1S,2E)-3-carboxy-1-isopropylbut-2-enyl]-N^1,3-dimethyl-L-valinamide], the IC50 with KB-3-1 was determined as 1.8 nM. Moreover, in the test with KB-8-5 (MDR1+), the “Ratio KB85/KB” value is 2.3 and the IC50 amounted to 4.1 nM. Besides, in the test with KB-V1 (MDR1++), the “Ratio KBV1/KB” value worked out at 82.2 and the IC50 was 148 nM.

As to `CN[C@@H](C(=O)N[C@H](C(=O)N(C)[C@H](/C=C(\C)C(=O)O)C(C)C)C(C)(C)C)C(C)(C)c1cccc(Cl)c1` [Example 3, 3-Chloro-N,β,β-trimethyl-D-phenylalanyl-N^1-[(1S,2E)-3-carboxy-1-isopropyl-2-butenyl]-N^1,3-dimethyl-L-valinamide], the IC50 in the test on KB-3-1 came out at 15.1 nM. Also, in the test on KB-8-5 (MDR1+), the “Ratio KB85/KB” value was determined as 1.3 and the IC50 turned out to be 20 nM. In the test on KB-V1 (MDR1++), the “Ratio KBV1/KB” value worked out at 76.0 and the IC50 amounted to 1150 nM.

As for `CN[C@H](C(=O)N[C@@H](CC(C)C)C(=O)N(C)[C@H](/C=C(\C)C(=O)O)C(C)C)C(C)(C)c1ccccc1.O=C(O)C(F)(F)F` [Example 96, N,β,β-trimethyl-L-phenylalanyl-N^1-[(1S,2E)-3-carboxy-1-isopropylbut-2-enyl]-N^1-methyl-L-leucinamide Trifluoroacetic Acid], the IC50 with KB-3-1 stood at 19 nM; in the test on KB-8-5 (MDR1+) it was 30 nM; in the test on KB-V1 (MDR1++), 1440 nM. Further, the “Ratio KB85/KB” value in the test with KB-8-5 (MDR1+) is listed as 1.6. Besides, in the test with KB-V1 (MDR1++), the “Ratio KBV1/KB” value is given as 76.1.

For `CCOC(=O)/C(C)=C/[C@H](C(C)C)N(C)C(=O)[C@@H](NC(=O)[C@@H](NC)C(C)(C)c1ccc(C(C)(C)C)cc1)C(C)(C)C` [Example 29, 4-tert-Butyl-N,β,β-trimethylphenylalanyl-N^1-[(1S,2E)-4-ethoxy-1-isopropyl-3-methyl-4-oxo-2-butenyl]-N^1,3-dimethyl-L-valinamide], the IC50 in the test on KB-3-1 is 35.4 nM; in the test with KB-8-5 (MDR1+) it was 380 nM; with KB-V1 (MDR1++), ≥ 3000 nM. Moreover, the “Ratio KB85/KB” value in the test with KB-8-5 (MDR1+) is 10.7. For the same molecule, the “Ratio KBV1/KB” value with KB-V1 (MDR1++) came to 84.7.

`CCC(CC)(c1ccccc1)[C@@H](NC)C(=O)N[C@H](C(=O)N(C)[C@H](/C=C(\C)C(=O)O)C(C)C)C(C)(C)C` [Example 126, β,β-diethyl-N-methyl-D-phenylalanyl-N^1-[(1S,2E)-3-carboxy-1-isopropylbut-2-enyl]-N^1,3-dimethyl-L-valinamide]: the figures for the IC50 with KB-3-1, in the test with KB-8-5 (MDR1+) and in the test on KB-V1 (MDR1++) were 18 nM, 23 nM and 1140 nM, respectively. The “Ratio KB85/KB” value in the test on KB-8-5 (MDR1+) is recorded as 1.3. Moreover, the “Ratio KBV1/KB” value with KB-V1 (MDR1++) came out at 63.3.

Turning to `CN[C@H](C(=O)N[C@H](C(=O)N(C)[C@H](/C=C(\C)C(=O)O)C(C)C)C(C)(C)C)C(C)(C)c1ccccc1OC` [Example 55, 2-Methoxy-N,β,β-trimethyl-L-phenylalanyl-N^1-[(1S,2E)-3-carboxy-1-isopropyl-2-butenyl]-N^1,3-dimethyl-L-valinamide], the IC50 with KB-3-1 worked out at 1.7 nM. Besides, in the test on KB-8-5 (MDR1+), the “Ratio KB85/KB” value came to 2.6 and the IC50 was 4.4 nM. In the test with KB-V1 (MDR1++), the “Ratio KBV1/KB” value is on record as 112.1 and the IC50 came to 190 nM.
